# Data from patent publication US12194018B2, “Cannabinoid compositions” (SRE Wellness, Inc., priority 2016, dated 2025).
# Columns and labels:
# [1] = in vivo; cited from earlier work
# [2] = edible Cannabis products; depending on liver function; cited from earlier work
# [3] = Emulsifying agents tested for emulsification of coconut oil and water (Example 2); assay type: physicochemical; conditions: coconut oils solid and liquid (MCT)
# Description: Several experiments were run using several different emulsifiers and combinations of different coconut oils: solid and liquid (MCT). (Note: liquid MCT is coconut oil that has medium chain triglyceride).
Compound,Risk of lethal overdose [1],Share of the THC able to be metabolized [2],Effectiveness as emulsifying agent (emulsification of the oil and water) [3]
"C=C(C)[C@@H]1CCC(C)=C[C@H]1c1c(O)cc(CCCCC)cc1O [CBD, cannabidiol]",no risk of lethal overdose,,
"CCCCCc1cc(O)c2c(c1)OC(C)(C)[C@@H]1CCC(C)=C[C@@H]21 [THC, Δ^9-tetrahydrocannabinol]",no risk of lethal overdose,2-6%,
cyclodextrin,,,good results
